Assay results taken from article PMC3046873 (ACS medicinal chemistry letters, 2011).

How the values were obtained:
Plasmodium falciparum [1] = conditions: cited from earlier work
Plasmodium falciparum [2] = assay: Activity against the malaria parasite Plasmodium falciparum; conditions: fold versus 1
[3] = background statement, no reference given, cited from earlier work

Compound	EC50 (Plasmodium falciparum [1])	increased activity against Plasmodium falciparum relative to 1 (Plasmodium falciparum [2])	oral availability [3]	half-life in plasma ([3]; plasma)
O=CN(O)CCC(c1ccc(Cl)c(Cl)c1)P(=O)(O)O (stereo not shown) [Compound 8]	90 nM	> 10 ×	–	–
O=CN(O)CCCP(=O)(O)O [Compound 1, Fosmidomycin]	–	–	poor	~ 1 h
